From patent US20250090498A1, “TREATMENT OF PRIMARY CTLA-4 CHECKPOINT RELATED IMMUNODEFICIENCIES” (ADIENNE PHARMA & BIOTECH SA, priority 2023, published 2025)
“Also recorded” adds a separate entry of the source.

Assays:
[1] = tested on: DSS+anti-CTLA-4-induced colitis; assay: DSS+anti-CTLA-4-induced colitis in C57BL/6 mice; assay type: in vivo; conditions: for lymphocytic infiltration, dose dependence: 0.09-0.045-0.022 mg/mouse (4.5, 2.25 and 1.12 mg/kg), lung, spleen, liver, kidney; for efficacy dose: intragastrically every other day, Eudragit formulations
Protocol: In trials, C57BL/6 mice received dextran sulfate sodium (DSS) (3%) in their drinking water and 100 μg anti-CTLA-4 monoclonal antibody (mAb) or isotype control antibody intraperitoneally, at days 0, 4 and 8 following the DSS administration as indicated in FIG. 2A. DSS is a water soluble, negatively charged sulfated polysaccharide with a highly variable molecular weight ranging from 5 to 1400 kDa. […] Eudragit-formulated 3-IAld (Puccetti et al, 2018) was given at 18 mg/kg 3-IAld intragastrically every other day, as illustrated in FIG. 2A. Animals were monitored daily for appearance of diarrhea, fecal blood, loss of body weight and survival. A week after DSS treatment (14 days after initiation of treatment), at the time at which the model recapitulates the human disease (Manicassamy et al, 2014), surviving mice were sacrificed, and the colon was excised and evaluated for macroscopic damage and local immune parameters.
In trials, C57BL/6 mice received dextran sulfate sodium (DSS) (3%) in their drinking water and 100 μg anti-CTLA-4 monoclonal antibody (mAb) or isotype control antibody intraperitoneally, at days 0, 4 and 8 following the DSS administration as indicated in FIG. 17A. Eudragit-formulated 1-methylindole-3-carboxylic acid was given intragastrically every other day, at scaling doses of 0.09, 0.18, or 0.36 mg/mouse (FIG. 17A). Animals were monitored daily for the appearance of diarrhea, fecal blood and loss of body weight. A week after DSS treatment (14 days after initiation of treatment), at the time at which the murine model recapitulates the human disease (Manicassamy et al, 2014), surviving mice were sacrificed and the colon was excised and evaluated for macroscopic damage and local immune parameters. […] CTLA-4 haploinsufficiency typically presents with extensive CD3+T cell infiltration across different organs (Kuehn et al, 2014—Schubert et al, 2014—Schwab et al, 2018).
In the DSS+anti-CTLA-4-induced colitis, mice were treated intragastrically (Eudragit formulations) every other day starting 4 days before DSS treatment and continuing until mice sacrifice. Mice were evaluated for disease activity in terms of histopathology, parameters of barrier permeability function and intestinal inflammation.
Assessment of scaling doses of 0.09-0.045-0.022 mg/mouse (corresponding to 4.5, 2.25 and 1.12 mg/kg) in the murine model of immune-mediated colitis (DSS+anti-CTLA-4) was performed as shown in Table 2 below.
C57BL/6 mice were treated with DSS in drinking water for 1 week followed by a recovery period of another week and administered […] of anti-CTLA-4 mAb and 1ME3CA as depicted in the experimental schedule in FIG. 23A. Mice were evaluated for weight change (FIG. 23B), disease activity index (FIG. 23C), clinical morbidity and rectal bleeding (FIG. 23D), colon and ileum histology (FIG. 23E) (PAS staining), ×40 magnification (scale bars, 100 m). Each in vivo experiment includes four to six mice per group (20 mice in each experiment).
Photographs were taken with a high-resolution microscope, lung and spleen ×10 magnification (scale bars, 400 m) and liver and kidney ×20 magnification (scale bars, 200 m).

in vivo = conditions: C57BL/6, mouse, 18 mg/kg
Protocol: (§1) A single-dose pharmacokinetic (PK) study was performed on healthy C57BL/6 mice to compare 1ME3CA and 3-IAld at 0.36 mg/topo dose. Untreated naïve mice were used as the control. […] Blood, obtained by cardiac puncture and collected into EDTA-containing tubes, and organs (brain, lung, intestine, liver and kidney) were assessed. All samples were stored at −80° C. until use. To evaluate 1ME3CA and 3-IAld for functional activity, the expression of AhR-downstream genes were concomitantly evaluated in these mice.

[2] = single-dose pharmacokinetic study in healthy C57BL/6 mice, tissues and serum by mass spectrometry
Protocol: as §1

[3] = preliminary pharmacokinetics in serum after Eudragit-formulated 3-IAld (90% 3-IAld/10% 13C8-labeled 3-IAld), mass spectrometry; assay type: in vivo
Protocol: Primary pharmacodynamics studies have been performed. The mode of action of 3-IAld occurs upon binding to AhR, both in vitro and in vivo. In vitro, 3-IAld induced luciferase activity in the H1L1.1c2 cell line containing a stably-transfected AhR-responsive firefly luciferase at the dose range […] (Zelante et al, 2013). […] Preliminary pharmacokinetics data have been obtained by administration of Eudragit-formulated 3-IAld in the composition 90% 3-IAld/10% 13C8-labeled 3-IAld and targeted/untargeted analysis by mass spectrometry in serum at different times (30 minutes (min), 1 hour (h), 2 h, 4.5h, 6 h, 24h). […] The presence of indole-3-formic acid was also confirmed with labelled 3-IAld (FIG. 13E), showing a similar kinetics and a peak level of about 25 μM at 30 min.

[4] = enteric microparticles; cited from earlier work
[5] = toxicology, 3 weeks, H&E tissue pathology in naive C57BL/6 and AhR−/− mice; assay type: in vivo; conditions: Eudragit-formulated, intragastrically every other day for 3 weeks, two concentrations
Source text: Eudragit-formulated 3-IAld (Puccetti et al, 2018) was given intragastrically every other day, at the doses indicated for 3 weeks to naive C57BL/6 and AhR−/− mice. At the end of treatment, mice were sacrificed, and tissue pathology blindly examined on different organs after Hematoxylin and Eosin (H&E) staining.

[6] = tested on: disease progression in IL-10-deficient mice; assay: disease progression in 16 wk-old IL-10-deficient mice, 3-IAld for 4 weeks then 1% DSS; assay type: in vivo, Il10−/− mice; conditions: 3-IAld every other day for 4 weeks
Protocol: Sixteen week-old IL-10-deficient mice (Il10^−/−) were treated with 3-IAld every other day for 4 weeks, as illustrated in FIG. 10A. As a mimic of disease exacerbation, mice received 1% DSS after 3-IAld treatment and subsequently evaluated for weight change, intestinal pathology and epithelial integrity.

[7] = 1-methylindole-3-carboxylic acid
[8] = 1-methylindole-3-carboxylic acid 0.09, 0.18 or 0.36 mg/mouse every other day
[9] = 1-methylindole-3-carboxylic acid 0.09-0.36 mg/mouse
[10] = 3-IAld 18 mg/kg, colon homogenates
[11] = 3-IAld 18 mg/kg, surviving mice, 14 days
[12] = Eudragit-formulated 3-IAld 18 mg/kg intragastrically every other day

Cn1cc(C(=O)O)c2ccccc21 [1-methylindole-3-carboxylic acid, 1-Methyl-1H-indole-3-carboxylic acid]
inflammatory pathology, dose dependence ([1]; 0.09-0.045-0.022 mg/mouse): protects from inflammatory pathology | lymphocytic infiltration, dose dependence ([1]; listed as 1ME3CA): reduces lymphocytic infiltration in anti-CTLA-4-treated mice in a dose-dependent manner | lymphocytic infiltration, dose dependence ([1]; listed as MECA): reduces lymphocytic infiltration | Il1b expression in the colon [1, 7]: reduced levels | Il10 expression in the colon [1, 7]: increased levels | anti-inflammatory state and AhR activation [1, 7]: promotes an anti-inflammatory state and AhR activation | clinical morbidity and rectal bleeding [1, 8]: protected | disease activity index [1, 8]: decreased | CD3+ T cell (lymphocytic) infiltration in the lung [1, 9]: effective in reducing; also recorded: reduces lymphocytic infiltration | CD3+ T cell infiltration in the ileum and colon [1, 9]: significantly reduced | gut inflammatory pathology (overall) [1, 9]: prevent gut inflammatory pathology; also recorded: protects from inflammatory pathology | normal architectural structure of the colon and ileum [1, 9]: recovery | epithelial barrier function (expression of ZO-1) ([1]; 1-methylindole-3-carboxylic acid 0.09-0.36 mg/mouse, colon and ileum): maintenance | expression of the AhR-dependent genes Cyp1a1, the antimicrobial peptide Reg3g, and 1122 ([1]; 1-methylindole-3-carboxylic acid, listed as 1-Methylindole-3-Carboxylic Acid): Potent Activator | expression of the AhR-dependent genes Cyp1a1, the antimicrobial peptide Reg3g, and 1122 ([1]; 1-methylindole-3-carboxylic acid, listed as 1-methylindole-3-carboxylic): induced the expression | body weight loss ([1]; Eudragit-formulated 1-methylindole-3-carboxylic acid 0.09, 0.18 or 0.36 mg/mouse intragastrically every other day): significant attenuation | effects at each administered dose ([1]; each dose including 0.09 mg/mouse): Positive effects | efficacy dose [1]: 2.25 mg/kg | Tmax (in vivo; in vivo): 0.5 h | detectability at 6 hours in serum, lung, and kidneys ([2]; after enteric 1ME3CA 18 mg/Kg): undetectable | Cmax values ([2]; after enteric 1ME3CA 18 mg/Kg, all organs and serum): very similar | levels 24 hours after the administration in intestine, liver and brain ([2]; after enteric 1ME3CA 18 mg/Kg, versus control): still higher than control | systemic levels versus those after oral 3-IAld ([2]; after oral 1ME3CA): more sustained and, as expected, significantly higher | clearance of metabolites from the organs ([2]; after oral 3-IAld 18 mg/Kg): rapid clearance | concentrations in the intestine, serum, and kidney ([2]; after oral 3-IAld 18 mg/Kg): basal | level 24 hours after administration of 3-IAld ([2]; mice administered with 3-IAld): had disappeared | time of peak levels as metabolite of 3-IAld ([3]; same kinetics as indole-3-formic acid): 30 min

O=Cc1c[nH]c2ccccc12 [3-IAld, 1H-indole-3-carbaldehyde]
inflammatory histopathology and barrier function [4]: improved | anti-inflammatory state ([1]; 3-IAld 18 mg/kg): promotes an anti-inflammatory state | epithelial barrier integrity ([1]; 3-IAld 18 mg/kg): provides epithelial barrier integrity | expression of IL-22 (gene and protein) ([1]; 3-IAld 18 mg/kg): induced expression | expression of Lgr5, Nfil3 and Muc1 ([1]; 3-IAld 18 mg/kg): promoted the expression | expression of the AhR-dependent genes Cyp1a1 and Ahrr ([1]; 3-IAld 18 mg/kg): induced expression | expression of the antimicrobial peptide Reg37 ([1]; 3-IAld 18 mg/kg): induced expression | gut inflammatory pathology (overall) ([1]; 3-IAld 18 mg/kg intragastrically every other day): prevent gut inflammatory pathology; also recorded: protects from inflammatory pathology | amounts of IL-10 [1, 10]: increased amounts | levels of TNF-α, IL-10 and IL-17A [1, 10]: reduced levels | levels of calprotectin [1, 10]: reduced | passage of dextran-FITC across the intestinal barrier ([1]; 3-IAld 18 mg/kg, serum): reduced | epithelial barrier function (expression of ZO-1) [1, 11]: recovery | epithelial cell proliferation and renewal (Ki-67 staining) [1, 11]: recovery | gross pathology [1, 11]: improved | normal architecture structure of the colon [1, 11]: recovery | body weight [1, 12]: increased | disease activity index [1, 12]: decreased | survival [1, 12]: increased | efficacy dose [1]: 18 mg/kg | tissue pathology in different organs (H&E) [5]: absence of visible tissue pathology | half-life (in vivo; po): 3 to 5 h | concentrations in all organs ([2]; after enteric 1ME3CA 18 mg/Kg): basal | disappearance of 3-IAld from tissues ([2]; single oral 18 mg/Kg 3-IAld, enteric microparticles, after 2 hours, most tissues): rapidly disappeared | labelled 3-IAld serum level at 2 h ([3]; in vivo): sharply reduced levels | metabolic conversion ([3]; in vivo): rapid metabolic conversion | time of peak of labelled 3-IAld in serum ([3]; in vivo): 30 to 60 min | colon inflammatory histopathology [6]: slow down | disease progression (overall) [6]: slows disease progression | loss of body weight [6]: slow down | epithelial integrity and renewal ([6]; PAS and Ki-67): maintain
